Results reported in patent US11033539B2, “Compounds of formulas (VII), (VIII), (IX), (XI), (XII), (XIII), and (XIV) as muscarinic receptor 4(M4) antagonists for treating neurological diseases” (Neurocrine Biosciences, Inc., priority 2015, dated 2021).

Key:
human M1 receptor = human M1 receptor (Homo sapiens (Human), UniProt P11229); experiment: Radioligand (tritiated N-methylscopolamine) binding assay, M1; conditions: CHO cell membranes expressing human M1; 1.5 nM tritiated N-methylscopolamine; 90 min, 37° C.; read-out: Ki against M1 receptor (Table 21, M1)
Sequence of human M1 receptor (P11229 whole entry): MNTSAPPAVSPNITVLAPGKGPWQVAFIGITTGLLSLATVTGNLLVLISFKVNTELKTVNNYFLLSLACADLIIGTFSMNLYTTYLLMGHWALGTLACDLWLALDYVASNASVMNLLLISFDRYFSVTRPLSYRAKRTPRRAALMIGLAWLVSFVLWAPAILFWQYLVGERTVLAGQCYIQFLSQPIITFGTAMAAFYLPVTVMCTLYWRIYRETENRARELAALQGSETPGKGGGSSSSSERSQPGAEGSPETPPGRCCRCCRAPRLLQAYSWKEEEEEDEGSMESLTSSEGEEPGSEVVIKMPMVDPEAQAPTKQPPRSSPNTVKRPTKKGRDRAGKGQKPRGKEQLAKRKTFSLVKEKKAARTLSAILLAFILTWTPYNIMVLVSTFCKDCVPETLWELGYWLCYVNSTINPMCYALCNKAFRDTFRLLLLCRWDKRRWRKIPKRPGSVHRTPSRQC
Method in brief: (§1)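 Test compound (12 concentrations, 10 μM to […]), 1.5 nM radioligand and CHO receptor membranes were co-incubated at 37 °C for 90 minutes in 50 mM HEPES buffer with 100 mM NaCl, 5 mM MgCl2 and 1 mM EDTA, pH 7.4. Membranes were then harvested onto polyethylenimine-pretreated filters and radioactivity was counted to determine Ki.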

human M2 receptor = human M2 receptor (Homo sapiens (Human), UniProt P08172); experiment: Radioligand (tritiated N-methylscopolamine) binding assay, M2; conditions: CHO cell membranes expressing human M2; 1.5 nM tritiated N-methylscopolamine; 90 min, 37° C.; read-out: Ki against M2 receptor (Table 21, M2)
Sequence of human M2 receptor (P08172 whole entry): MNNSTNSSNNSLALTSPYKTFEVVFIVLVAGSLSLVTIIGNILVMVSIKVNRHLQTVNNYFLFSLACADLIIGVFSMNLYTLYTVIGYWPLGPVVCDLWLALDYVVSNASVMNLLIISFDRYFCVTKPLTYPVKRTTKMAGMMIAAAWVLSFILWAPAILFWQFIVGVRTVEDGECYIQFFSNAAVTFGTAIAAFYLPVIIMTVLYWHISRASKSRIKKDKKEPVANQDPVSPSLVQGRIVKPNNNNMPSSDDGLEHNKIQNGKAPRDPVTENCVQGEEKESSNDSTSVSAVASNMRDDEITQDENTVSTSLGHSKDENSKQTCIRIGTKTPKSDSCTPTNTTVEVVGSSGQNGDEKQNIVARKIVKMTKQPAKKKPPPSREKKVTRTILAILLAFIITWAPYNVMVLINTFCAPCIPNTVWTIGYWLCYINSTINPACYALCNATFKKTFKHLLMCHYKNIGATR
Method in brief: as §1

human M3 receptor = human M3 receptor (Homo sapiens (Human), UniProt P20309); experiment: Radioligand (tritiated N-methylscopolamine) binding assay, M3; conditions: CHO cell membranes expressing human M3; 1.5 nM tritiated N-methylscopolamine; 90 min, 37° C.; read-out: Ki against M3 receptor (Table 21, M3)
Sequence of human M3 receptor (P20309 whole entry): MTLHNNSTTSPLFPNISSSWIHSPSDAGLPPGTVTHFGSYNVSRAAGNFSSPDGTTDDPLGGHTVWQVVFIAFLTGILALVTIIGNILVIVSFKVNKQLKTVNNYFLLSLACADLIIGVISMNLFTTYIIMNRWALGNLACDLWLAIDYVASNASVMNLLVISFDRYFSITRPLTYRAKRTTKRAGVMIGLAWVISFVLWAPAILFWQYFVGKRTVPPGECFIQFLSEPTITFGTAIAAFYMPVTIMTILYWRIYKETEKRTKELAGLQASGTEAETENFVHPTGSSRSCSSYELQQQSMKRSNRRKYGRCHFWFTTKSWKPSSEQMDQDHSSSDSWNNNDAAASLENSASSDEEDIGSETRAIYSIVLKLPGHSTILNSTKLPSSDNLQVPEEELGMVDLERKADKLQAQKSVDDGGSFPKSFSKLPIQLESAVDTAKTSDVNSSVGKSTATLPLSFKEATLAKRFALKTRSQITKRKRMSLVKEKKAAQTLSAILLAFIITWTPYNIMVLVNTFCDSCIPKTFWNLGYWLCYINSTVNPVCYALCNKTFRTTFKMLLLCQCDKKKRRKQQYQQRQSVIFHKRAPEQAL
Method in brief: as §1

human M4 receptor = human M4 receptor (Homo sapiens (Human), UniProt P08173); experiment: Radioligand (tritiated N-methylscopolamine) binding assay, M4; conditions: Ki against the M4 receptor; membranes from CHO cells expressing human M4; tritiated N-methylscopolamine 1.5 nM; read-out: Ki
Sequence of human M4 receptor (P08173 whole entry): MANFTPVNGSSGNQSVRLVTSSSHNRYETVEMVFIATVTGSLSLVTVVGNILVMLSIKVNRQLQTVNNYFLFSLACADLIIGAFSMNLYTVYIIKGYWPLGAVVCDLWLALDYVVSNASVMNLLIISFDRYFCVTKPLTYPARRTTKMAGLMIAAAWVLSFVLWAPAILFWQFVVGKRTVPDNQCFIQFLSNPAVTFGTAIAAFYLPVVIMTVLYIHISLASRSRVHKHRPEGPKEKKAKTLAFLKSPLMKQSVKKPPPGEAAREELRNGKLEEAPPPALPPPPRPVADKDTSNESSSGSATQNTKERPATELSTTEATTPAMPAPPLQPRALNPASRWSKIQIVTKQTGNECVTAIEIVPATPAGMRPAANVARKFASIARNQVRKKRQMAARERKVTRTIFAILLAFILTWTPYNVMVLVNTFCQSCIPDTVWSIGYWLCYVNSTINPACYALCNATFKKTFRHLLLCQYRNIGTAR
Method in brief: as §1

human M5 receptor = human M5 receptor (Homo sapiens (Human), UniProt P08912); experiment: Radioligand (tritiated N-methylscopolamine) binding assay, M5; conditions: CHO cell membranes expressing human M5; 1.5 nM tritiated N-methylscopolamine; 90 min, 37° C.; read-out: Ki against M5 receptor (Table 21, M5)
Sequence of human M5 receptor (P08912 whole entry): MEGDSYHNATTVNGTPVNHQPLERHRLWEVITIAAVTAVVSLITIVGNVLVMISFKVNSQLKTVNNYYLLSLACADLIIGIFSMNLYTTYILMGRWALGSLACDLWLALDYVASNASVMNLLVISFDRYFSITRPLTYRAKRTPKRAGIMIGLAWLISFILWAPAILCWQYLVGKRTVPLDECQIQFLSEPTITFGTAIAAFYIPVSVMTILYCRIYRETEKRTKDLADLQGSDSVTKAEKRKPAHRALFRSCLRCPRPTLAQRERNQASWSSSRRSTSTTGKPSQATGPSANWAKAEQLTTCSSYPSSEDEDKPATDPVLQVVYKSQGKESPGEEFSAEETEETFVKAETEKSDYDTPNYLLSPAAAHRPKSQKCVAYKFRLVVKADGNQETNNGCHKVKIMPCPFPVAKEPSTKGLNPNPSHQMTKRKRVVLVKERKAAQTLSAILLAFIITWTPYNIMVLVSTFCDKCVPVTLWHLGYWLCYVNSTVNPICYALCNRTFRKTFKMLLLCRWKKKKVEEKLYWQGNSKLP
Method in brief: as §1

Ki (human M1 receptor) [nM]	Ki (human M2 receptor) [nM]	Ki (human M3 receptor) [nM]	Ki (human M4 receptor) [nM]	Ki (human M5 receptor) [nM]	SMILES
100 to 1000	10 to 100	100 to 1000	< 10	> 1000	C[C@@H]1CN(c2cc(F)c(F)c(F)c2)CCN1C(=O)NCCC1CCN(Cc2ccc(O)cc2)CC1 [6-27, (2R)-N-(2-{1-[(4-hydroxyphenyl)methyl]piperidin-4-yl}ethyl)-2-methyl-4-(3,4,5-trifluorophenyl)piperazine-1-carboxamide]
100 to 1000	10 to 100	100 to 1000	< 10	> 1000	C[C@@H]1CN(c2cc(F)c(F)c(F)c2)CCN1C(=O)NCCC1CCN(Cc2cccc3c2OCC3)CC1 [6-3, (2R)-N-{2-[1-(2,3-dihydro-1-benzofuran-7-ylmethyl)piperidin-4-yl]ethyl}-2-methyl-4-(3,4,5-trifluorophenyl)piperazine-1-carboxamide]
100 to 1000	100 to 1000	> 1000	< 10	> 1000	COc1cc(N2CCC(C(=O)NCCC3CCN(Cc4ccccc4)CC3)CC2)ccc1OC(F)(F)F [10-10, N-[2-(1-benzylpiperidin-4-yl)ethyl]-1-[3-methoxy-4-(trifluoromethoxy)phenyl]piperidine-4-carboxamide]
> 1000	10 to 100	> 1000	< 10	> 1000	Cc1c(C(=O)NCCC2CCN(Cc3ccccc3)CC2)cnc2cc(-c3ccc(F)cc3F)nn12 [18-1, N-[2-(1-benzylpiperidin-4-yl)ethyl]-2-(2,4-difluorophenyl)-7-methyl-pyrazolo[1,5-a]pyrimidine-6-carboxamide]
100 to 1000	10 to 100	> 1000	< 10	100 to 1000	C[C@@H]1CN(c2ccc(C#N)c(OC(F)(F)F)c2)CCN1C(=O)NCCC1CCN(Cc2ccccc2)CC1 [22-17]
> 1000	100 to 1000	> 1000	< 10	> 1000	N#Cc1cc(N2CCC(C(=O)NCCC3(O)CCN(Cc4ccccc4)CC3)CC2)ccc1OC(F)(F)F [10-20, N-[2-(1-benzyl-4-hydroxypiperidin-4-yl)ethyl]-1-[3-cyano-4-(trifluoromethoxy)phenyl]piperidine-4-carboxamide]
> 1000	100 to 1000	> 1000	< 10	> 1000	CC1CN(c2cccc(OC(F)(F)F)c2)CCC1C(=O)NCCC1CCN(Cc2ccccc2)CC1 (stereo not drawn) [10-18, N-[2-(1-benzylpiperidin-4-yl)ethyl]-3-methyl-1-[3-(trifluoromethoxy)phenyl]piperidine-4-carboxamide]
100 to 1000	10 to 100	100 to 1000	< 10	> 1000	C[C@@H]1CN(c2ccc(C(F)(F)F)cc2F)CCN1C(=O)NCCC1CCN(Cc2ccccc2)CC1 [4-73, (2R)-N-[2-(1-benzylpiperidin-4-yl)ethyl]-4-[2-fluoro-4-(trifluoromethyl)phenyl]-2-methylpiperazine-1-carboxamide]
100 to 1000	100 to 1000	> 1000	< 10	> 1000	C[C@@H]1CN(c2nc(Cl)cc(C#N)n2)CCN1C(=O)NCCC1CCN(Cc2ccccc2)CC1 [5-5, (2R)-N-[2-(1-benzylpiperidin-4-yl)ethyl]-4-(4-chloro-6-cyanopyrimidin-2-yl)-2-methylpiperazine-1-carboxamide]
100 to 1000	10 to 100	100 to 1000	< 10	100 to 1000	C[C@@H]1CN(c2ccc(Cl)c(F)c2)CCN1C(=O)NCCC1CCN(Cc2ccccc2)CC1 [22-14]
> 1000	100 to 1000	> 1000	< 10	> 1000	N#Cc1cc(F)cc(N2CCC(C(=O)NCCC3CCN(Cc4ccccc4)CC3)CC2)c1 [10-14, N-[2-(1-benzylpiperidin-4-yl)ethyl]-1-(3-cyano-5-fluorophenyl)piperidine-4-carboxamide]
100 to 1000	100 to 1000	> 1000	< 10	> 1000	N#Cc1ccc(N2CCC(C(=O)NCCC3CCN(Cc4ccccc4)CC3)CC2)cc1OC(F)(F)F [10-13, N-[2-(1-benzylpiperidin-4-yl)ethyl]-1-[4-cyano-3-(trifluoromethoxy)phenyl]piperidine-4-carboxamide]
100 to 1000	10 to 100	100 to 1000	< 10	100 to 1000	C[C@@H]1CN(c2cc(F)c(OC(F)(F)F)c(F)c2)CCN1C(=O)NCCC1CCN(Cc2ccccc2)CC1 [4-60, (2R)-N-[2-(1-benzylpiperidin-4-yl)ethyl]-4-[3,5-difluoro-4-(trifluoromethoxy)phenyl]-2-methylpiperazine-1-carboxamide]
100 to 1000	100 to 1000	100 to 1000	< 10	> 1000	C[C@H]1CN(c2ncc(Cl)cn2)CCC1C(=O)NCCC1CCN(Cc2ccccc2)CC1 (stereo partly drawn) [20-3, (3R)-N-[2-(1-benzylpiperidin-4-yl)ethyl]-1-(5-chloropyrimidin-2-yl)-3-methylpiperidine-4-carboxamide]
> 1000	100 to 1000	> 1000	< 10	> 1000	O=C(NCCC1CCN(Cc2ccccc2)CC1)C1CCN(c2ccc(C(F)(F)F)cc2)CC1 [10-9, N-[2-(1-benzylpiperidin-4-yl)ethyl]-1-[4-(trifluoromethyl)phenyl]piperidine-4-carboxamide]
100 to 1000	10 to 100	100 to 1000	< 10	> 1000	Cc1cc(N2CCC(C(=O)NCCC3CCN(Cc4ccccc4)CC3)CC2)ccc1OC(F)(F)F [10-56, N-[2-(1-benzylpiperidin-4-yl)ethyl]-1-[3-methyl-4-(trifluoromethoxy)phenyl]piperidine-4-carboxamide]
> 1000	100 to 1000	> 1000	< 10	> 1000	N#Cc1cc(N2CCC(C(=O)NCCC3CCN(Cc4ccccc4)CC3)CC2)ccc1F [9-73, N-[2-(1-benzylpiperidin-4-yl)ethyl]-1-(3-cyano-4-fluorophenyl)piperidine-4-carboxamide]
100 to 1000	100 to 1000	> 1000	< 10	> 1000	C[C@@H]1CN(c2ccc(F)c(C(F)F)c2)CCN1C(=O)NCCC1CCN(Cc2ccccc2)CC1 [7-9, (2R)-N-[2-(1-benzylpiperidin-4-yl)ethyl]-4-[3-(difluoromethyl)-4-fluorophenyl]-2-methylpiperazine-1-carboxamide]
100 to 1000	10 to 100	> 1000	< 10	100 to 1000	C[C@@H]1CN(c2ccc(C#N)c(F)c2)CCN1C(=O)NCCC1CCN(Cc2ccccc2)CC1 [22-15]

SMILES	Ki (human M1 receptor) [nM]	Ki (human M2 receptor) [nM]	Ki (human M3 receptor) [nM]	Ki (human M4 receptor) [nM]	Ki (human M5 receptor) [nM]
C[C@@H]1CN(c2ncc(C#N)cn2)C[C@@H](C)N1C(=O)NCCC1CCN(Cc2ccccc2)CC1 [26-2]	> 1000	100 to 1000	> 1000	< 10	> 1000
C[C@@H]1CN(c2ncc(C#N)cn2)C[C@H](C)N1C(=O)NCCC1CCN(CC[Si](C)(C)C)CC1 [21-7]	10 to 100	< 10	10 to 100	< 10	100 to 1000
